Values joined by “and” are separate entries in the source; they are usually repeats but may differ in a detail not shown here. Equal entries are not always repeated. After the bases stand the sugars from the 5' end (letter, count) and the backbone: PS all phosphorothioate, else s phosphorothioate and o phosphodiester by linkage. Methylation of C is not given here. e = 2'-O-(2-methoxyethyl) (MOE); k = constrained ethyl (cEt); d = 2'-deoxy (DNA)

The target of this data set is IRF4. As to conditions: ASO.

Regarding TCACTAAGCTTGATAA (sugars k3 d10 k3, PS), for the setting “SK-MEL-28, 4 µM”, the target mRNA inhibition worked out at 37%.
For the sequence TCAGAAATCACGAGGT (sugars k3 d10 k3, PS), the target mRNA inhibition (MM.1R, 0.0625 µM) is -11%; the target mRNA inhibition (MM.1R, 0.25 µM) is -5%; the target mRNA inhibition (MM.1R, 4 µM) stood at 37%.
On to TCAGATTTACACCGTT (sugars k3 d10 k3, PS), for which the target mRNA inhibition (MM.1R, 1 µM) came out at 14%.
For “TCAGTTTGTGAAGCAT (sugars k3 d9 k3 e1, PS)”, the target mRNA inhibition was 28% (MM.1R, 0.074 µM); 22% (MM.1R, 0.222 µM); 43% (MM.1R, 0.666 µM); 58% (MM.1R, 1 µM); 64% (MM.1R, 2 µM).
Consider “TCAGTTTGTGAAGCAT (sugars kddddddddddkekek, PS)”, for which the target mRNA inhibition (MM.1R, 1 µM) came to 21%.
Still for that read-out and setting: with “TCAGTTTGTGAAGCAT (sugars kdddddddddkekeke, PS)” the figure was 9%; with “TCAGTTTGTGAAGCAT (sugars kkdddddddddekeke, PS)”, 45%.
Consider “TCAGTTTGTGAAGCAT (sugars kkdddddddddkekek, PS)”, for which the target mRNA inhibition is, setting by setting: (MM.1R, 0.074 µM) 9%; (MM.1R, 0.222 µM) 27%; (MM.1R, 0.666 µM) 46%; (MM.1R, 1 µM) 58%; (MM.1R, 2 µM) 73%.
Take “TCAGTTTGTGAAGCAT (sugars kkkddddddddkekek, PS)”: under “MM.1R, 1 µM”, the target mRNA inhibition turned out to be 41%.
Consider TCATGATGTATACCAA (sugars k3 d10 k3, PS), for which the target mRNA inhibition (SK-MEL-28, 4 µM) came to 65%.
For the sequence TCCAACCTTTATGATT (sugars k3 d10 k3, PS), the target mRNA inhibition (MM.1R, 1 µM) is -3%.
The same measure, in the same setting: with TCCACCCTCCGTCTCA (sugars k3 d10 k3, PS) the figure was -9%.
For the sequence TCCAGAAAATTCAGCT (sugars k3 d10 k3, PS), the target mRNA inhibition (SK-MEL-28, 4 µM) was determined as 48%.
The same measure, in the same setting: with TCCATTGGAGGAGGGT (sugars k3 d10 k3, PS) the figure was 33%; with TCCCACTGTCACTATG (sugars k3 d10 k3, PS), 15%.
Still for that read-out and setting: with TCCCCGTATCAAAAAA (sugars k3 d10 k3, PS) the figure was -12%; with TCCCGAGGCCGGAGAC (sugars k3 d10 k3, PS), -27%.
In the case of TCCCTAGGTCATACCC (sugars k3 d10 k3, PS), the target mRNA inhibition (SK-MEL-28, 4 µM) was found to be 58%.
Consider TCCCTCCAGCTTCGGT (sugars k3 d10 k3, PS), for which, under “MM.1R, 1 µM”, the target mRNA inhibition was -21%.
Consider TCCGCTTGGAGAATTA (sugars k3 d10 k3, PS), for which, under “SK-MEL-28, 4 µM”, the target mRNA inhibition came out at 13%.
For the sequence TCCTAACCCTACCCTT (sugars k3 d10 k3, PS), the target mRNA inhibition (SK-MEL-28, 4 µM) was determined as 30%.
Still for that read-out and setting: with TCCTAGGTTTCAGTTG (sugars k3 d10 k3, PS) the figure was 48%; with TCCTATGGTCAGCCTC (sugars k3 d10 k3, PS), 48%.
On the same count and under the same terms, with TCCTGGCAGTGCTCTC (sugars k3 d10 k3, PS) the figure was 60%.
For the sequence TCCTGTAGTATGAGAA (sugars k3 d10 k3, PS), the target mRNA inhibition (MM.1R, 1 µM) turned out to be 22%.
In the case of TCCTTTCCTACAGATC (sugars k3 d10 k3, PS), the target mRNA inhibition (SK-MEL-28, 4 µM) came to 33%.
For TCGAGATCAGTCTCAA (sugars k3 d10 k3, PS), the target mRNA inhibition (SK-MEL-28, 4 µM) is 58% and 82%.
On the same count and under the same terms, with TCGCCCATGAGTTGAA (sugars k3 d10 k3, PS) the figure was 39%; with TCGGTCCACATACCTG (sugars k3 d10 k3, PS), 39%; with TCTAAACCAGCATATT (sugars k3 d10 k3, PS), 33%.
Same read-out and setting: with TCTAAGGCAAGCTGAA (sugars k3 d10 k3, PS) the figure was 21%.
For TCTACAAGGTCTGAGT (sugars k3 d10 k3, PS), the target mRNA inhibition (SK-MEL-28, 4 µM) was determined as 57%.
Still for that read-out and setting: with TCTATAAGATGTATAC (sugars k3 d10 k3, PS) the figure was 26%.
For “TCTATAGTGTTCCAGG (sugars kdddddddddkekeke, PS)”, under “MM.1R, 1 µM”, the target mRNA inhibition came to 12%.
As for TCTATGGGATTATATA (sugars k3 d10 k3, PS), the target mRNA inhibition (SK-MEL-28, 4 µM) worked out at 26%.
Still for that read-out and setting: with TCTCAAGGAGATCCAC (sugars k3 d10 k3, PS) the figure was 1%.
Still for that read-out and setting: with TCTCACGCAGTGCACC (sugars k3 d10 k3, PS) the figure was 44%; with TCTGAATTGTTACTAA (sugars k3 d10 k3, PS), 35%; with TCTGAGCAGAACGAGG (sugars k3 d10 k3, PS), 47%.
Same read-out and setting: with TCTGAGGGTCTGGAAA (sugars k4 d8 k4, PS) the figure was 3%; with TCTGATCCGGACTCTC (sugars k3 d10 k3, PS), 41%; with TCTTACTCCGCTGAGT (sugars k3 d10 k3, PS), 35%.
Consider TCTTATGCATGTTCCT (sugars k3 d10 k3, PS), for which the target mRNA inhibition (SK-MEL-28, 4 µM) amounted to 62%.
In the case of TCTTTATAGTAGGTAA (sugars k3 d10 k3, PS), the target mRNA inhibition (MM.1R, 1 µM) stood at 14%.
Regarding TCTTTATGCGAAGAAT (sugars k3 d10 k3, PS), the target mRNA inhibition (SK-MEL-28, 4 µM) was found to be 42%.

Source of the values: the OligoGym collection.
